Test results published in patent publication US20250109140A1, “5-[5-(PIPERIDIN-4-YL)THIENO[3,2-C]PYRAZOL-2-YL]INDAZOLE DERIVATIVES AND RELATED COMPOUNDS AS MODULATORS FOR SPLICING NUCLEIC ACIDS AND FOR THE TREATMENT OF PROLIFERATIVE DISEASES” (REMIX THERAPUTICS INC., priority 2022, published 2025).
Like-named read-outs stand apart in the source and are kept apart here.

Columns and labels:
Format in all cases: cell-based
[1] = test system: HTT mRNA; experiment: Splicing RT-qPCR assay, HTT canonical (CJ) and alternative (AJ) junction mRNA; conditions: Homo sapiens; for EC50: AC50 = 50% response in AJ mRNA increase
Summary of the method: (§1)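 A673/K562; 11-pt 3-fold dil., top 10 uM final, ≤0.25% DMSO; 24 h, 37 °C, 5% CO2. Lysis, then RT-qPCR of CJ/AJ isoforms, ≥duplicate. ΔCt vs housekeeper (GAPDH/GUSB/PPIA), ΔΔCt vs DMSO, RQ = 2^(−ΔΔCt), expressed as % response.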

[2] = test system: MYB mRNA; experiment: Splicing RT-qPCR assay, MYB canonical (CJ) and alternative (AJ) junction mRNA; conditions: Homo sapiens; for EC50: AC50 = 50% response in AJ mRNA increase
Summary of the method: as §1

[3] = test system: Target C mRNA; experiment: Splicing RT-qPCR gene panel, Target C canonical junction (CJ) mRNA; conditions: Homo sapiens; Table 8; larger gene panel, decrease in CJ mRNA levels
Summary of the method: as §1

[4] = test system: SMN2 mRNA; experiment: Splicing RT-qPCR gene panel, SMN2 canonical junction (CJ) mRNA; conditions: Homo sapiens; Table 8; larger gene panel, decrease in CJ mRNA levels
Summary of the method: as §1

[5] = Table 7, RT-qPCR, A673 or K562 cells, 24 hours treatment
[6] = Table 7, IC50 = 50% response in CJ mRNA decrease, RT-qPCR, A673 or K562 cells, 24 hours treatment, read-out: HTT CJ
[7] = Table 8, larger gene panel, decrease in CJ mRNA levels, read-out: HTT CJ IC50
[8] = Table 7, IC50 = 50% response in CJ mRNA decrease, RT-qPCR, A673 or K562 cells, 24 hours treatment, read-out: MYB CJ
[9] = Table 8, larger gene panel, decrease in CJ mRNA levels, read-out: MYB CJ IC50

| SMILES | EC50 [1, 5] [nM] | IC50 [1, 6] [nM] | IC50 [1, 7] [nM] | EC50 [2, 5] [nM] | IC50 [2, 8] [nM] | IC50 [2, 9] [nM] | IC50 [3] [nM] | IC50 [4] [nM] |
| --- | --- | --- | --- | --- | --- | --- | --- | --- |
| COc1c(-c2cc3cn(C4CCNCC4)nc3s2)cc2c[nH]nc2c1C [Compound 248] | > 10000 | > 10000 | > 10000 | > 10000 | > 10000 | > 10000 | > 10000 | > 10000 |
| Cc1cn2cc(-c3nc4sc(C5CCNCC5)cc4s3)nc(C)c2n1 [Compound 270, 4-(2-{2,8-dimethylimidazo[1,2-a]pyrazin-6-yl}thieno[2,3-d][1,3]thiazol-5-yl)piperidine] | 100 to 1000 | < 100 | 100 to 1000 | 1000 to 10000 | 100 to 1000 | 1000 to 10000 | 100 to 1000 | < 100 |
| Cc1cn2cc(-c3nc4sc(C5CCNCC5)cc4s3)ccc2n1 [Compound 271, 4-(2-{2-methylimidazo[1,2-a]pyridin-6-yl}thieno[2,3-d][1,3]thiazol-5-yl)piperidine] | 100 to 1000 | < 100 | 100 to 1000 | 100 to 1000 | 100 to 1000 | 100 to 1000 | 100 to 1000 | < 100 |
| Cn1cc2cc(N3Cc4cc(C5CCNCC5)sc4C3=O)cc(F)c2n1 [Compound 1118, 5-(7-fluoro-2-methylindazol-5-yl)-2-(piperidin-4-yl)-4H-thieno[2,3-c]pyrrol-6-one] | 100 to 1000 | 100 to 1000 | 100 to 1000 | 1000 to 10000 | 1000 to 10000 | 1000 to 10000 | 1000 to 10000 | < 100 |
| Cn1cc2cc(N3Cc4sc(C5CCNCC5)cc4C3=O)cc(F)c2n1 [Compound 1119, 5-(7-fluoro-2-methylindazol-5-yl)-2-(piperidin-4-yl)-6H-thieno[2,3-c]pyrrol-4-one] | < 100 | < 100 | < 100 | 100 to 1000 | 100 to 1000 | 100 to 1000 | 100 to 1000 | < 100 |
| Cn1cc2cc(N3Cc4sc(C5CCNCC5)cc4C3=O)ccc2n1 [Compound 1120] | 1000 to 10000 | 1000 to 10000 | 1000 to 10000 | 1000 to 10000 | 1000 to 10000 | 1000 to 10000 | 1000 to 10000 | 100 to 1000 |
| Cc1cc(N2Cc3sc(C4CCNCC4)cc3C2=O)cc2cn(C)nc12 [Compound 1122] | 100 to 1000 | 100 to 1000 | 100 to 1000 | 100 to 1000 | 100 to 1000 | 100 to 1000 | 100 to 1000 | 100 to 1000 |
| Cn1cc2cc(N3Cc4sc(C5CCNCC5)cc4C3=O)ncc2n1 [Compound 1125] | 1000 to 10000 | 1000 to 10000 | 1000 to 10000 | 1000 to 10000 | 1000 to 10000 | 1000 to 10000 | 1000 to 10000 | 100 to 1000 |
| Cc1cn2nc(N3Cc4sc(C5CCNCC5)cc4C3=O)cc(C)c2n1 [Compound 1127] | < 100 | < 100 | < 100 | 100 to 1000 | 100 to 1000 | 100 to 1000 | 100 to 1000 | < 100 |
